Measured values: US20240382509A1, “Cannabinoids C- and O-glycosides possessing anti-proliferative and anti-metastatic properties and process for preparation thereof” (Council of Scientific and Industrial Research, priority 2021, published 2024)

Experiments:
[1] = test system: MIAPaCa-2 cells; assay: Wound healing assay; type: cell-based, human; settings: MIAPaCa-2, 1, 2 and 3 μM, 36 h, compared to 2, 2b, 4, 4a, 4b
Description: Wound healing assay. MIAPaCa-2 cells (1×10^6) were seeded onto 6 well plates and grown up to more than 90% confluency, and wounds were created with sterile pipette tip (20-200 μL), and the media was replaced with serum-free media. Subsequently, the cells were treated with vehicle (DMSO), compounds 3 μM of 2 and 4, and their derivatives, i.e., 1, 2 and 3 μM of 2a, 2b, 4a, 4b for 36 h. Upon termination, the cells were washed with PBS, and images were captured under a microscope at 20× magnification (FIG. 4).

[2] = test system: Snail-1, Twist-1, Vimentin and E-cadherin in MIAPaCa-2 cells; assay: Western blot of EMT markers; type: cell-based, human; settings: 36 h, immunoblot
Description: Western Blot analysis. Briefly, MIAPaCa-2 cells were seeded in a 60 mm petri dish and maintained up to 70% confluency; afterward, the cells were treated with compound 2a (0.5, 1.5, 3 & 5 μM) for 36 h. After treatment, the cells were harvested washed thrice with ice-cold PBS and were subjected to protein lysis with lysis buffer (HEPES 1 mM/L, KCl 60 mM/L, NP-40 0.3%, EDTA 1 mM/L, DTT 1 mM/L, sodium orthovanadate 1 mM/L, PMSF 0.1 mM/L and cocktail protease inhibitor). The lysis product was centrifuged at 12000 rpm for 15 min at 4° C. to remove the cellular debris, and the supernatants were collected. Total protein was estimated with the help of the Bradford method. An equal amount of protein was subjected to SDS-PAGE, and consequently, after the protein was separated on SDS-PAGE based on their molecular weight, they were transferred onto the PVDF membrane. The membrane was blocked with 5% BSA and incubated in primary antibody prepared in 5% BSA (dilution ranging from 1:1000-1:2000) for 2-3 h. […] After washing with TBST, the protein expression was quantified by adding a chemiluminescent substrate on the membrane, and the signal obtained was captured in Biomax light x-ray films.
Now this particular derivative was further analysed for its ability to inhibit the molecular signatures of EMT. […]

[3] = test system: MDA-MB-231 cells; assay: Matrigel invasion assay, MDA-MB-231; type: cell-based, human; settings: MDA-MB231, 0.5 μM to 5 μM
Description: Matrigel invasion assay: MIAPaCa-2 and MDA-MB-231 cells (1×10^6) were seeded onto matrigel coated inserts and treated with compound 2a (0.5, 1.5, 3 & 5 μM) for 36 h in 5% CO2 incubator at 37° C. The upper chamber is filled with serum-free media, and the lower half consists of 10% FBS supplemented media, thus creating a gradient of chemoattractant that facilitates the migration of cells. Upon termination, the inserts were washed with PBS, and the non-migratory cells were removed from the upper chamber by using a cotton plug. Further, the cells were fixed with methanol and stained later with 0.2% crystal violet. After drying, the inserts were observed under an inverted microscope at 20× magnification, and images were taken.
(§1) Now to study its anti-migratory and anti-metastatic role in another highly metastatic cancer cells of breast origin (MDA-MB 231) the IC50 value was determined by performing MTT assay (FIG. 6a).

[4] = test system: MDA-MB-231 cells; assay: In-situ gelatin degradation assay, MDA-MB-231; type: cell-based, human; settings: MDA-MB-231, 1.5 μM to 5 μM
Description: Matrix gelatin degradation assay. In-situ gelatin degradation assay is performed to detect the formation of migratory structures (invadopodia & filopodia). Briefly, glass coverslips were coated with gelatin tagged with FITC, and the coated coverslips were dipped into 70% ethanol and immersed into a 6 well plate filled with RPMI and the coverslips were kept in a CO2 incubator for 1-2 h for preconditioning. Later on, both MIAPaCa-2 and MDA-MB-231 cells were seeded onto the coverslips and kept overnight for attachment. Treatment of the compound 2a (0.5, 1.5, 3 & 5 μM) was given on the next day and continued for 36 h. Upon termination, the coverslips were washed with ice-cold PBS, and then it was fixed in 4% paraformaldehyde for 15 min and then washed with PBS. Finally, the coverslips were mounted using mounting media consist of glycerol, and the edges were sealed with nail polish. After drying, the slides were observed under a fluorescence microscope to assess a degraded area's presence. The fluorescent images were captured, and the images were further processed in Image J software (Version 1.50i) to quantify the degraded area in each field.
as §1

[5] = test system: MIAPaCa-2 cells; assay: Phase contrast microscopy of cell morphology; type: cell-based, human; settings: MIAPaCa-2, 0.5 μM to 5 μM
[6] = test system: HCT-116 cells; assay: Annexin V/PI staining for apoptosis (FACS); type: cell-based; settings: HCT-116, 750 nM 5FU+3 μM 2a
Description: 1×10^6 HCT-116 cells were seeded in 60 mm Petri dish and treated with vehicle, 3 μM 2a, 750 nM 5FU and 750 nM 5FU+3 μM 2a for indicated time points. After treatment termination, the cells were carefully trypsinized and the palette obtained were resuspended in 600 μL of binding buffer (10 mM HEPES [N-2-hydroxyethylpiperazine-N-2-ethanesulfonicacid], 140 mM NaCl, and 2.5 mM CaCl2, pH 7.4). Subsequently, the cells were stained with 6 μL of AnnexinV-FITC and 10 μL of propidium iodide for 20 min at room temperature in the dark. The samples were immediately analyzed by FACS (BD Accuri C6), and the scatter plot was obtained by BD Accuri C6 software.
The DNA damaging effect of compound 2a in combination with subtoxic doses of 5FU was further analyzed by Annexin/PI staining to check the activation of programmed cell death. […] Cumulatively, compound 2a elevated the DNA damaging effect and eventually leads to programmed cell death in combination with subtoxic doses of 5FU (FIG. 9b).

CCCCCc1cc(O[C@@H]2OC(CO)[C@@H](O)C(O)C2O)c2c(c1)OC(C)(C)[C@@H]1CCC(C)=C[C@@H]21 (stereo partly drawn) [Compound 2a, Δ^9-tetrahydrocannabinol-1-O-β-D-glucopyranoside]
anti-migratory properties in wound healing assay [1]: most prominent anti-migratory properties
expression of Snail-1, Twist-1 and Vimentin ([2]; MIAPaCa-2, 0.5, 1.5, 3 and 5 μM): significant down modulation
expression of E-cadherin ([2]; MIAPaCa-2, from 1.5 to 5 μM): upregulated
migration in Matrigel coated invasion chamber [3]: periodical loss of migration
gelatin degradation [4]: significant decrease of gelatin degradation
mesenchymal (fibroblastic) morphology [5]: gradual loss of mesenchymal (fibroblastic) morphology
apoptosis (Annexin+/PI+) [6]: induction of late phase of apoptosis
